Data as given in patent US20240228555A9, “ANTIMICROBIAL PEPTIDOMIMETICS” (Basilea Pharmaceutica International AG, Allschwil, priority 2020, published 2024).
Where a SMILES comes first, the peptide text is derived from it.

Experiments:
[1] = system: human red blood cells (hRBC); format: cell-based; settings: red cells of human, 1 h, 0.2 g/L
How it was run: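 Percent lysis was derived from supernatant absorbance at 540 nm relative to full lysis by 2.5% Triton X-100 (PBS defines 0%). Compounds, 200 μg/mL, were exposed for 1 h at 37° C to a 20% (v/v) suspension of washed human red cells.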

[2] = system: Escherichia coli MCR-1 Af 45; settings: Mueller-Hinton broth II, no visible growth after 18-20 hours at 35° C.
How it was run: (§1)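 Peptides were made up as 1 mg/mL stocks in sterile water. Colonies in 0.85% saline were set to 0.5 McFarland, then diluted in cation-adjusted Mueller-Hinton II broth to about 5×10^5 CFU/mL. Inoculum was combined with two-fold serial peptide dilutions in water containing 0.002% (final) polysorbate 80.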

[3] = system: Klebsiella pneumoniae SSI3010; settings: SSI3010
How it was run: as §1

[4] = system: Escherichia coli ATCC 25922; settings: ATCC 25922
How it was run: as §1

Compound | Hemolysis at 0.2 g/L [1] | Escherichia coli MCR-1 Af 45 MIC [2] | Klebsiella pneumoniae SSI3010 MIC [3] | Escherichia coli ATCC 25922 MIC [4]
CC[C@H](C)[C@H](NC(=O)[C@@H](NC(=O)[C@@H]1C[C@@H](O)CN1C(=O)[C@@H](N)C(C)C)[C@@H](C)CC)C(=O)N[C@@H](Cc1ccc(O)cc1)C(=O)N[C@@H]1C(=O)N[C@@H](CC(N)=O)C(=O)N[C@@H](CCCNC(=N)N)C(=O)N[C@@H](CCN)C(=O)N[C@@H]([C@@H](C)O)C(=O)N[C@H](CCN)C(=O)N[C@@H](CCCCN)C(=O)N[C@H](C(=O)N[C@@H](CO)C(=O)N[C@@H](CCCNC(=N)N)C(=O)N[C@@H](Cc2ccc(O)cc2)C(=O)O)CSSC1(C)C [Example 107, Val-Hyp-Ile-Ile-Tyr-Pen-Asn-Arg-Dab-Thr-^DDab-Lys-Cys-Ser-Arg-Tyr] (HELM PEPTIDE1{V.[Hyp].I.I.Y.[Pen].N.R.[Dab].T.[NCC[C@@H](N[*:1])C(=O)[*:2]].K.C.S.R.Y}$PEPTIDE1,PEPTIDE1,6:R3-13:R3$$$V2.0) | <1% | 0.25 mg/L | 0.5 mg/L | 0.25 mg/L
CC[C@H](C)[C@H](NC(=O)[C@@H]1C[C@@H](O)CN1C(=O)[C@@H](N)C(C)C)C(=O)N[C@@H](CCN)C(=O)N[C@@H](Cc1ccc(O)cc1)C(=O)N[C@@H]1C(=O)N[C@@H](CC(N)=O)C(=O)N[C@@H](CCCNC(=N)N)C(=O)N[C@@H](CCN)C(=O)N[C@@H]([C@@H](C)O)C(=O)N[C@H](CCN)C(=O)N[C@@H](CCCNC(N)=O)C(=O)N[C@H](C(=O)N[C@@H](CCN)C(=O)N[C@@H](CO)C(=O)N[C@@H](Cc2ccc(O)cc2)C(=O)O)CSSC1(C)C [Example 108, Val-Hyp-Ile-Dab-Tyr-Pen-Asn-Arg-Dab-Thr-^DDab-Cit-Cys-Dab-Ser-Tyr] (HELM PEPTIDE1{V.[Hyp].I.[Dab].Y.[Pen].N.R.[Dab].T.[NCC[C@@H](N[*:1])C(=O)[*:2]].[Cit].C.[Dab].S.Y}$PEPTIDE1,PEPTIDE1,6:R3-13:R3$$$V2.0) | <1% | 0.125 mg/L | 0.25 mg/L | 0.25 mg/L
CC[C@H](C)[C@H](NC(=O)[C@@H](NC(=O)[C@@H]1C[C@@H](N)CN1C(=O)[C@@H](N)C(C)C)[C@@H](C)CC)C(=O)N[C@@H](Cc1ccc(O)cc1)C(=O)N[C@@H]1C(=O)N[C@@H](CC(N)=O)C(=O)N[C@@H](CCCNC(=N)N)C(=O)N[C@@H](CCN)C(=O)N[C@@H]([C@@H](C)O)C(=O)N[C@H](CCN)C(=O)N[C@@H](CCCCN)C(=O)N[C@H](C(=O)N[C@@H](CCN)C(=O)N[C@H](C(=O)N[C@@H](Cc2ccc(O)cc2)C(=O)O)[C@@H](C)O)CSSC1(C)C [Example 109, Val-Pro((4R)NH2)-Ile-Ile-Tyr-Pen-Asn-Arg-Dab-Thr-^DDab-Lys-Cys-Dab-Thr-Tyr] (HELM PEPTIDE1{V.[N[C@@H]1C[C@@H](C(=O)[*:2])N([*:1])C1].I.I.Y.[Pen].N.R.[Dab].T.[NCC[C@@H](N[*:1])C(=O)[*:2]].K.C.[Dab].T.Y}$PEPTIDE1,PEPTIDE1,6:R3-13:R3$$$V2.0) | <1% | 0.125 mg/L | 0.25 mg/L | 0.125 mg/L
CC[C@H](C)[C@H](NC(=O)[C@@H]1C[C@@H](N)CN1C(=O)[C@@H](N)C(C)C)C(=O)N[C@H](C(=O)N[C@@H](Cc1ccc(O)cc1)C(=O)N[C@@H]1C(=O)N[C@@H](CC(N)=O)C(=O)N[C@@H](CCCNC(=N)N)C(=O)N[C@@H](CCN)C(=O)N[C@@H]([C@@H](C)O)C(=O)N[C@H](CCN)C(=O)N[C@@H](CCCCN)C(=O)N[C@H](C(=O)N[C@@H](CO)C(=O)N[C@@H](CCCNC(=N)N)C(=O)N[C@@H](Cc2ccc(O)cc2)C(=O)O)CSSC1(C)C)[C@@H](C)O [Example 110, Val-Pro((4R)NH2)-Ile-Thr-Tyr-Pen-Asn-Arg-Dab-Thr-^DDab-Lys-Cys-Ser-Arg-Tyr] (HELM PEPTIDE1{V.[N[C@@H]1C[C@@H](C(=O)[*:2])N([*:1])C1].I.T.Y.[Pen].N.R.[Dab].T.[NCC[C@@H](N[*:1])C(=O)[*:2]].K.C.S.R.Y}$PEPTIDE1,PEPTIDE1,6:R3-13:R3$$$V2.0) | <1% | 0.125 mg/L | 0.5 mg/L | 0.5 mg/L
CC[C@H](C)[C@H](NC(=O)[C@@H](NC(=O)[C@@H]1C[C@@H](O)CN1C(=O)[C@@H](N)C(C)C)[C@@H](C)CC)C(=O)N[C@@H](Cc1ccc(O)cc1)C(=O)N[C@@H]1C(=O)N[C@@H](CC(N)=O)C(=O)N[C@@H](CCCNC(=N)N)C(=O)N[C@@H](CCN)C(=O)N[C@@H]([C@@H](C)O)C(=O)N[C@H](CCN)C(=O)N[C@@H](CCCCN)C(=O)N[C@H](C(=O)N[C@@H](CCN)C(=O)N[C@H](C(=O)N[C@@H](Cc2ccc(O)cc2)C(=O)O)[C@@H](C)O)CSSC1(C)C [Example 111, Val-Hyp-Ile-Ile-Tyr-Pen-Asn-Arg-Dab-Thr-^DDab-Lys-Cys-Dab-Thr-Tyr] (HELM PEPTIDE1{V.[Hyp].I.I.Y.[Pen].N.R.[Dab].T.[NCC[C@@H](N[*:1])C(=O)[*:2]].K.C.[Dab].T.Y}$PEPTIDE1,PEPTIDE1,6:R3-13:R3$$$V2.0) | <1% | 0.125 mg/L | 0.5 mg/L | 0.25 mg/L
CC[C@H](C)[C@H](NC(=O)[C@@H](NC(=O)[C@@H]1C[C@@H](O)CN1C(=O)[C@@H](N)C(C)C)[C@@H](C)CC)C(=O)N[C@@H](Cc1ccc(O)cc1)C(=O)N[C@@H]1C(=O)N[C@@H](CC(N)=O)C(=O)N[C@@H](CCCNC(=N)N)C(=O)N[C@@H](CCN)C(=O)N[C@@H](CO)C(=O)N[C@H](CCN)C(=O)N[C@@H](CCCCN)C(=O)N[C@H](C(=O)N[C@@H](CCN)C(=O)N[C@H](C(=O)N[C@@H](Cc2ccc(O)cc2)C(=O)O)[C@@H](C)O)CSSC1(C)C [Example 112, Val-Hyp-Ile-Ile-Tyr-Pen-Asn-Arg-Dab-Ser-^DDab-Lys-Cys-Dab-Thr-Tyr] (HELM PEPTIDE1{V.[Hyp].I.I.Y.[Pen].N.R.[Dab].S.[NCC[C@@H](N[*:1])C(=O)[*:2]].K.C.[Dab].T.Y}$PEPTIDE1,PEPTIDE1,6:R3-13:R3$$$V2.0) | <1% | 0.0625 mg/L | 0.25 mg/L | 0.25 mg/L
CC[C@H](C)[C@H](NC(=O)[C@@H]1C[C@@H](O)CN1C(=O)[C@@H](N)C(C)C)C(=O)N[C@@H](CCN)C(=O)N[C@@H](Cc1ccc(O)cc1)C(=O)N[C@@H]1C(=O)N[C@@H](CC(N)=O)C(=O)N[C@@H](CCCNC(=N)N)C(=O)N[C@@H](CCN)C(=O)N[C@@H]([C@@H](C)O)C(=O)N[C@H](CCN)C(=O)N[C@@H](CCCNC(N)=O)C(=O)N[C@H](C(=O)N[C@@H](CCN)C(=O)N[C@H](C(=O)N[C@@H](Cc2ccc(O)cc2)C(=O)O)[C@@H](C)O)CSSC1(C)C [Example 113, Val-Hyp-Ile-Dab-Tyr-Pen-Asn-Arg-Dab-Thr-^DDab-Cit-Cys-Dab-Thr-Tyr] (HELM PEPTIDE1{V.[Hyp].I.[Dab].Y.[Pen].N.R.[Dab].T.[NCC[C@@H](N[*:1])C(=O)[*:2]].[Cit].C.[Dab].T.Y}$PEPTIDE1,PEPTIDE1,6:R3-13:R3$$$V2.0) | <1% | 0.125 mg/L | 0.25 mg/L | 0.125 mg/L
CC[C@H](C)[C@H](NC(=O)[C@@H](NC(=O)[C@@H]1C[C@@H](O)CN1C(=O)[C@@H](N)C(C)(C)C)[C@@H](C)CC)C(=O)N[C@@H](Cc1ccc(O)cc1)C(=O)N[C@@H]1C(=O)N[C@@H](CC(N)=O)C(=O)N[C@@H](CCCNC(=N)N)C(=O)N[C@@H](CCN)C(=O)N[C@@H]([C@@H](C)O)C(=O)N[C@H](CCN)C(=O)N[C@@H](CCCCN)C(=O)N[C@H](C(=O)N[C@@H](CCN)C(=O)N[C@@H](CCCNC(=N)N)C(=O)N[C@@H](Cc2ccc(O)cc2)C(=O)O)CSSC1(C)C [Example 114, tBuGly-Hyp-Ile-Ile-Tyr-Pen-Asn-Arg-Dab-Thr-^DDab-Lys-Cys-Dab-Arg-Tyr] (HELM PEPTIDE1{[CC(C)(C)[C@H](N)C(=O)[*:2]].[Hyp].I.I.Y.[Pen].N.R.[Dab].T.[NCC[C@@H](N[*:1])C(=O)[*:2]].K.C.[Dab].R.Y}$PEPTIDE1,PEPTIDE1,6:R3-13:R3$$$V2.0) | <1% | 0.125 mg/L | 0.5 mg/L | 0.125 mg/L
CC[C@H](C)[C@H](NC(=O)[C@@H](NC(=O)[C@@H]1C[C@@H](N)CN1C(=O)[C@@H](N)C(C)C)[C@@H](C)CC)C(=O)N[C@@H](Cc1ccc(O)cc1)C(=O)N[C@@H]1C(=O)N[C@@H](CC(N)=O)C(=O)N[C@@H](CCCNC(=N)N)C(=O)N[C@@H](CCN)C(=O)N[C@@H]([C@@H](C)O)C(=O)N[C@H](CCN)C(=O)N[C@@H]([C@@H](C)CC)C(=O)N[C@H](C(=O)N[C@@H](CCN)C(=O)N[C@H](C(=O)N[C@@H](Cc2ccc(O)cc2)C(=O)O)[C@@H](C)O)CSSC1(C)C [Example 115, Val-Pro((4R)NH2)-Ile-Ile-Tyr-Pen-Asn-Arg-Dab-Thr-^DDab-Ile-Cys-Dab-Thr-Tyr] (HELM PEPTIDE1{V.[N[C@@H]1C[C@@H](C(=O)[*:2])N([*:1])C1].I.I.Y.[Pen].N.R.[Dab].T.[NCC[C@@H](N[*:1])C(=O)[*:2]].I.C.[Dab].T.Y}$PEPTIDE1,PEPTIDE1,6:R3-13:R3$$$V2.0) | <1% | 0.125 mg/L | 0.5 mg/L | 0.5 mg/L
